According to PubChem BioAssay (NCI):
Where “and” joins values, the source holds several entries; their conditions need not be identical. Equal values may be shown once.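 96-well plates; 48 h exposure; 5 concentrations. Endpoints by linear interpolation between flanking doses. Not reached: highest tested concentration assigned. Abbreviation: GI50, concentration required for 50% inhibition of growth. At the TGI there is no net growth.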

Columns and labels:
Assay in all cases: NCI tumour cell line growth inhibition, 48 h
A549 NSCLC = tested on: A549 NSCLC
ACHN renal = tested on: ACHN renal
MOLT-4 leukemia = tested on: MOLT-4 leukemia
OVCAR-4 ovarian = tested on: OVCAR-4 ovarian
SF-268 CNS = tested on: SF-268 CNS
TK-10 renal = tested on: TK-10 renal
U251 CNS = tested on: U251 CNS
HS 578T breast = tested on: HS 578T breast
MCF7 breast = tested on: MCF7 breast
BT-549 breast = tested on: BT-549 breast

SMILES | TGI (A549 NSCLC) [µM] | TGI (ACHN renal) [µM] | TGI (MOLT-4 leukemia) [µM] | TGI (OVCAR-4 ovarian) [µM] | TGI (SF-268 CNS) [µM] | TGI (TK-10 renal) [µM] | TGI (U251 CNS) [µM] | TGI (HS 578T breast) [µM] | TGI (MCF7 breast) [µM] | GI50 (A549 NSCLC) [µM] | GI50 (ACHN renal) [µM] | GI50 (HS 578T breast) [µM] | GI50 (MCF7 breast) [µM] | GI50 (MOLT-4 leukemia) [µM] | GI50 (SF-268 CNS) | GI50 (TK-10 renal) [µM] | GI50 (U251 CNS) [µM] | GI50 (BT-549 breast) [µM]
CC(Oc1ccc2c(-c3ccc(Cl)cc3)cc(=O)oc2c1)C(=O)O (stereo not drawn) | > 100 | > 100 | > 100 | > 100 | > 100 | > 100 | > 100 |  |  |  |  |  |  |  |  |  |  | 
O=S1(=O)c2ccccc2N(O)C2=NCCN21 | > 100 | > 100 | > 100 |  | > 100 | > 100 | > 100 |  |  |  |  |  |  |  |  |  |  | 
COC(=O)CCC(=O)Nc1ccc(Cl)cc1C | > 100 | > 100 | > 100 | > 100 | > 100 | > 100 | > 100 |  |  |  |  |  |  |  |  |  |  | 
CCCCCCCCCCCCSC(=S)c1c(C)[nH]n(-c2ccccc2)c1=O | > 50 | > 50 | 46.1 | > 50 | > 50 | > 50 | > 50 |  |  |  |  |  |  |  |  |  |  | 
CC(C)(C)C(=O)N1C(C(=O)O)Cc2ccccc2[C@@H]1Cc1ccccc1 (stereo partly drawn) | > 100 | > 100 | > 100 | > 100 | > 100 | > 100 | > 100 |  |  |  |  |  |  |  |  |  |  | 
COc1ccc(N2C(=O)C3CC(c4ccc(Br)cc4)c4c([nH]c5ccccc45)C3C2=O)cc1 (stereo not drawn) | 6.96 | 15.4 | 29 | 9.29 | 23.4 | 20 |  |  |  |  |  |  |  |  |  |  |  | 
[N-]=[N+]=NCN1C(=O)C2C3C=CC(C2C1=O)C1C2C(=O)N(CN=[N+]=[N-])C(=O)C2C31 (stereo not drawn) | > 100 | > 100 |  |  | > 100 | > 100 |  | > 100 | > 100 |  |  |  |  |  |  |  |  | 
c1ccc(SC(Sc2ccccc2)=C2CCC2)cc1 | > 100 | > 100 | > 100 | > 100 | > 100 | > 100 | > 100 |  |  |  |  |  |  |  |  |  |  | 
CCOC(=O)C12CCCC1(O)N(NC(=O)OC)C(C)=C2C(=O)OC (stereo not drawn) | > 100 | > 100 | > 100 | > 100 | > 100 | > 100 | > 100 |  |  |  |  |  |  |  |  |  |  | 
C=C(C)[C@@H]1CC[C@]2(CO)CC[C@]3(C)[C@H](CC[C@@H]4[C@@]5(C)CCCNC(C)(C)[C@@H]5CC[C@]43C)[C@@H]12 | 3.24 | 3.09 | 4.5 |  | 3.54 | 3.5 | 3.09 | 4.79 | 2.77 | 1.73 | 1.7 | 1.99 | 1.29 | 1.79 | 1.74 µM | 1.76 | 1.65 | 
Nc1ncc(-c2ccc3ncnc(Nc4cccc(Cl)c4)c3c2)cn1 | > 100 |  |  |  | > 100 |  |  |  |  | 1.7 | 0.0232 |  | 0.186 |  | 0.294 µM and 1.95 µM |  | 0.538 | 0.262
O=C(CC1(O)C(=O)Nc2c(Cl)cc(Cl)cc21)c1ccccc1 (stereo not drawn) | > 100 | > 100 | > 100 | > 100 | > 100 | > 100 |  |  |  |  |  |  |  |  |  |  |  | 
COc1ccc(C(=O)C2CCC(C(=O)O)C2)cc1 (stereo not drawn) | > 100 | > 100 | > 100 | > 100 |  | > 100 | > 100 |  |  |  |  |  |  |  |  |  |  | 
Nc1nc(=O)n(C2CCC(CO)O2)cc1F (stereo not drawn) | > 100 | > 100 | > 100 | > 100 | > 100 | > 100 | > 100 |  |  |  |  |  |  |  |  |  |  | 
